Experimental data as given in US20020137929A1, “1 - (3-heterocyclylphenyl) isothiourea, -isourea, -guanidine and -amidine herbicidal agents” (Intellectual Property Department, BASF Aktiengesellschaft, priority 1998, published 2002).

Tests used:
ABUTH (Velvetleaf) [1] = assay: Preemergence herbicidal evaluation; format: in vivo, Abutilon theophrasti; settings: rated 4-5 weeks after treatment
How it was run: (§1)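 Test compound, dissolved in aqueous acetone, was sprayed over planted soil cups at an equivalent of about 0.0156 to 0.500 kg/ha; seeds had been mixed with potting soil. Greenhouse growth followed, with visual 0-9 scoring of injury at four to five weeks.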

ECHCG (Barnyardgrass) = assay: Preemergence herbicidal evaluation; format: in vivo, Echinochloa crus-galli; settings: rated 4-5 weeks after treatment
How it was run: as §1

[2] = system: IPOHE (Morningglory, Ivyleaf); assay: Preemergence herbicidal evaluation; format: in vivo, Ipomoea hederacea; settings: rated 4-5 weeks after treatment
How it was run: as §1

SETVI (Foxtail, Green) = assay: Postemergence herbicidal evaluation; format: in vivo, Setaria viridis; settings: postemergence
How it was run: (§2)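 ~2-wk seedlings; postemergence spray, 40 psi; vehicle 1:1 acetone:water + 0.5% Tween 20; rate ≈0.0156–0.500 kg/ha; greenhouse hold; scored 4–5 wk after treatment, 0–9 scale vs control; repeat tests averaged.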

[3] = system: GLXMAW (Soybean, Williams); assay: Postemergence herbicidal evaluation; format: in vivo, Glycine max, (L.) Merr. cv Williams; settings: postemergence
How it was run: as §2

ABUTH (Velvetleaf) [4] = assay: Postemergence herbicidal evaluation; format: in vivo, Abutilon theophrasti; settings: postemergence
How it was run: as §2

CYPSE (Flatsedge) = assay: Preemergence weed control under flooded paddy conditions; format: in vivo, Cyperus serotinus; settings: rated 3-4 weeks after treatment
How it was run: (§3)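 Visual injury scored 0-9 against control three to four weeks post-treatment, greenhouse-grown. Application: acetone/water (50/50) solutions dosed directly into flood water (1.5-3 cm over silt loam, planted top 0.5 cm), roughly 0.0313 to 0.500 kg/ha active ingredient.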

[5] = system: ECHORC (Watergrass (Calif.)); assay: as above; format: in vivo, Echinochloa oryzoides; settings: rated 3-4 weeks after treatment
How it was run: as §3

CASOB (Sicklepod) = assay: Preemergence herbicidal evaluation; format: in vivo, Cassia obtusifolia; settings: rated 4-5 weeks after treatment
How it was run: as §1

[6] = system: IPOHE (Morningglory, Ivyleaf); assay: Postemergence herbicidal evaluation; format: in vivo, Ipomoea hederacea; settings: postemergence
How it was run: as §2

ZEAMX (Corn, Field) = assay: Postemergence herbicidal evaluation; format: in vivo, Zea mays; settings: postemergence
How it was run: as §2

AMBEL (Ragweed, Common) = assay: Preemergence herbicidal evaluation; format: in vivo, Ambrosia artemisifolia; settings: rated 4-5 weeks after treatment
How it was run: as §1

[7] = rate 0.0313 kg/ha, rating scale 0-9
[8] = rate 0.0625 kg/ha, rating scale 0-9
[9] = rate 0.1250 kg/ha, rating scale 0-9
[10] = rate 0.2500 kg/ha, rating scale 0-9

CCOC(=O)CN1C(=O)C(COC)SC1=Nc1cc(-n2c(=O)cc(C(F)(F)F)n(C)c2=O)c(F)cc1Cl (stereo not shown) [Compound 156, Ethyl 2-{{2-chloro-5-[3,6-dihydro-3-methyl-2,6-dioxo-4-(trifluoromethyl)-1(2H)-pyrimidinyl]-4-fluorophenyl}imino}-5-(methoxymethyl)-4-oxo-3-thiazolidine-acetate]
3.0: Preemergence herbicidal rating IPOHE [2, 8]
5.0: Herbicidal rating SETVI (SETVI (Foxtail, Green); rate 0.0625 kg/ha) | Preemergence herbicidal rating AMBEL (AMBEL (Ragweed, Common); [9])
4.5: Herbicidal rating ZEAMX (ZEAMX (Corn, Field); rate 0.0156 kg/ha) | Herbicidal rating ZEAMX (ZEAMX (Corn, Field); rate 0.0313 kg/ha) | Herbicidal rating ZEAMX (ZEAMX (Corn, Field); rate 0.0625 kg/ha)
4.0: Preemergence herbicidal rating ABUTH (ABUTH (Velvetleaf) [1]; [7]) | Herbicidal rating GLXMAW ([3]; rate 0.0313 kg/ha)
0.0: Preemergence herbicidal rating ECHCG (ECHCG (Barnyardgrass); [7]) | Preemergence herbicidal rating ECHCG (ECHCG (Barnyardgrass); [8]) | Preemergence herbicidal rating ECHCG (ECHCG (Barnyardgrass); [9]) | Preemergence herbicidal rating ECHCG (ECHCG (Barnyardgrass); [10]) | Preemergence herbicidal rating IPOHE [2, 7] | Herbicidal rating SETVI (SETVI (Foxtail, Green); rate 0.0156 kg/ha) | Herbicidal rating SETVI (SETVI (Foxtail, Green); rate 0.0313 kg/ha) | herbicidal effect rating, CYPSE (CYPSE (Flatsedge); 0.2500 kg/ha) | herbicidal effect rating, ECHORC ([5]; 0.2500 kg/ha) | Preemergence herbicidal rating CASOB (CASOB (Sicklepod); [7]) | Preemergence herbicidal rating CASOB (CASOB (Sicklepod); [8]) | Preemergence herbicidal rating CASOB (CASOB (Sicklepod); [10]) | Preemergence herbicidal rating AMBEL (AMBEL (Ragweed, Common); [7]) | Preemergence herbicidal rating AMBEL (AMBEL (Ragweed, Common); [8])
9.0: Preemergence herbicidal rating ABUTH (ABUTH (Velvetleaf) [1]; [8]) | Preemergence herbicidal rating ABUTH (ABUTH (Velvetleaf) [1]; [9]) | Preemergence herbicidal rating ABUTH (ABUTH (Velvetleaf) [1]; [10]) | Preemergence herbicidal rating IPOHE [2, 9] | Preemergence herbicidal rating IPOHE [2, 10] | Herbicidal rating ABUTH (ABUTH (Velvetleaf) [4]; rate 0.0156 kg/ha) | Herbicidal rating ABUTH (ABUTH (Velvetleaf) [4]; rate 0.0313 kg/ha) | Herbicidal rating ABUTH (ABUTH (Velvetleaf) [4]; rate 0.0625 kg/ha) | Herbicidal rating IPOHE ([6]; rate 0.0156 kg/ha) | Herbicidal rating IPOHE ([6]; rate 0.0313 kg/ha) | Herbicidal rating IPOHE ([6]; rate 0.0625 kg/ha) | Preemergence herbicidal rating AMBEL (AMBEL (Ragweed, Common); [10])
5.5: Herbicidal rating GLXMAW ([3]; rate 0.0156 kg/ha) | Herbicidal rating GLXMAW ([3]; rate 0.0625 kg/ha)

CCN1C(=O)CSC1=Nc1cc(-n2c(=O)cc(C(F)(F)F)n(C)c2=O)c(F)cc1Cl [Compound 159, 3-{4-Chloro-5-[(3-ethyl-4-oxo-2-thiazolidinyl-idene)amino]-2-fluorophenyl}-1-methyl-6-(trifluoromethyl)-2,4(1H,3H)-pyrimidinedione]
8.0: Preemergence herbicidal rating AMBEL (AMBEL (Ragweed, Common); 0.2500 kg/ha)
3.0: Preemergence herbicidal rating ECHCG (ECHCG (Barnyardgrass); 0.2500 kg/ha) | Preemergence herbicidal rating CASOB (CASOB (Sicklepod); 0.0625 kg/ha) | Preemergence herbicidal rating CASOB (CASOB (Sicklepod); 0.1250 kg/ha) | Preemergence herbicidal rating AMBEL (AMBEL (Ragweed, Common); 0.0313 kg/ha)
6.0: Preemergence herbicidal rating AMBEL (AMBEL (Ragweed, Common); 0.1250 kg/ha)
9.0: Preemergence herbicidal rating ABUTH (ABUTH (Velvetleaf) [1]; 0.0313 kg/ha) | Preemergence herbicidal rating ABUTH (ABUTH (Velvetleaf) [1]; 0.0625 kg/ha) | Preemergence herbicidal rating ABUTH (ABUTH (Velvetleaf) [1]; 0.1250 kg/ha) | Preemergence herbicidal rating ABUTH (ABUTH (Velvetleaf) [1]; 0.2500 kg/ha) | Preemergence herbicidal rating IPOHE ([2]; 0.0625 kg/ha) | Preemergence herbicidal rating IPOHE ([2]; 0.2500 kg/ha) | Herbicidal rating ABUTH (ABUTH (Velvetleaf) [4]; rate 0.0156 kg/ha) | Herbicidal rating ABUTH (ABUTH (Velvetleaf) [4]; rate 0.0313 kg/ha) | Herbicidal rating ABUTH (ABUTH (Velvetleaf) [4]; rate 0.0625 kg/ha) | Herbicidal rating IPOHE ([6]; rate 0.0156 kg/ha) | Herbicidal rating IPOHE ([6]; rate 0.0313 kg/ha) | Herbicidal rating IPOHE ([6]; rate 0.0625 kg/ha)
0.0: Preemergence herbicidal rating ECHCG (ECHCG (Barnyardgrass); 0.0156 kg/ha) | Preemergence herbicidal rating ECHCG (ECHCG (Barnyardgrass); 0.0625 kg/ha) | Preemergence herbicidal rating IPOHE ([2]; 0.0156 kg/ha) | herbicidal effect rating, CYPSE (CYPSE (Flatsedge); 0.0625 kg/ha) | herbicidal effect rating, CYPSE (CYPSE (Flatsedge); 0.1250 kg/ha) | Preemergence herbicidal rating CASOB (CASOB (Sicklepod); 0.0156 kg/ha)
2.0: Preemergence herbicidal rating ABUTH (ABUTH (Velvetleaf) [1]; 0.0156 kg/ha) | Preemergence herbicidal rating ECHCG (ECHCG (Barnyardgrass); 0.1250 kg/ha) | Preemergence herbicidal rating IPOHE ([2]; 0.0313 kg/ha) | Herbicidal rating SETVI (SETVI (Foxtail, Green); rate 0.0313 kg/ha) | herbicidal effect rating, ECHORC ([5]; 0.0313 kg/ha)
1.0: Preemergence herbicidal rating ECHCG (ECHCG (Barnyardgrass); 0.0313 kg/ha) | Herbicidal rating SETVI (SETVI (Foxtail, Green); rate 0.0156 kg/ha) | Preemergence herbicidal rating CASOB (CASOB (Sicklepod); 0.0313 kg/ha) | Preemergence herbicidal rating AMBEL (AMBEL (Ragweed, Common); 0.0156 kg/ha)
4.0: herbicidal effect rating, ECHORC ([5]; 0.0625 kg/ha) | Preemergence herbicidal rating AMBEL (AMBEL (Ragweed, Common); 0.0625 kg/ha)
6.5: Herbicidal rating ZEAMX (ZEAMX (Corn, Field); rate 0.0313 kg/ha)
5.0: Herbicidal rating GLXMAW ([3]; rate 0.0156 kg/ha) | herbicidal effect rating, ECHORC ([5]; 0.1250 kg/ha) | Herbicidal rating ZEAMX (ZEAMX (Corn, Field); rate 0.0156 kg/ha)
7.0: Preemergence herbicidal rating IPOHE ([2]; 0.1250 kg/ha) | Herbicidal rating SETVI (SETVI (Foxtail, Green); rate 0.0625 kg/ha) | Herbicidal rating GLXMAW ([3]; rate 0.0625 kg/ha) | herbicidal effect rating, ECHORC ([5]; 0.2500 kg/ha) | Preemergence herbicidal rating CASOB (CASOB (Sicklepod); 0.2500 kg/ha) | Herbicidal rating ZEAMX (ZEAMX (Corn, Field); rate 0.0625 kg/ha)
5.5: Herbicidal rating GLXMAW ([3]; rate 0.0313 kg/ha)
